# Experiments:
# [1] = tested on: HSV-1; test: HSV Antiviral (ELISA) Assay; type: cell-based, herpes simplex virus type 1; conditions: Vero cells, HSV-1; for IC50: Human alphaherpesvirus 1, Vero, read-out: IC50 Ug/ml HSV
# Experimental: Vero cells (ATCC #CCL-81) are plated on 96-well tissue culture plates at 3.5×10^4 cells per 100 μl tissue culture DMEM (Dulbecco's modified Eagle media) supplemented with 2% fetal bovine serum (FBS) in each well. After overnight incubation @ 37° C. (in 5% CO2) and 30 minutes prior to infection with HSV-1 (multiplicity of infection equal to 0.006), cells are either untreated, or treated with test compound (multiple concentrations) or reference standard drug control. After approximately 24 hours post-infection incubation @ 37° C. (in 5% CO2), cells are fixed for ELISA assay. The primary antibody is murine anti-HSV glycoprotein D monoclonal primary antibody and the secondary antibody is goat anti-mouse IgG linked to β-galactosidase. Thus the extent of viral replication is determined by assessing β-galactosidase activity by quantifying the generation of the 4-methyl umbelliferone fluorescent cleavage product after addition of the methyl umbelliferyl-β-D-galactoside (Sigma #M1633) substrate on a microfluorimeter (365 nm for excitation and 450 nm for emission). Antiviral activity (IC50) of the test compound is determined by comparing the flourescence obtained in absence of compound to that obtained in the presence of compound.
# [2] = tested on: VZV strain Ellen; test: VZV Antiviral (ELISA) Assay; type: cell-based, varicella-zoster virus; conditions: human foreskin fibroblast cells; for IC50 / inhibition at 10 µg/mL: Human alphaherpesvirus 3, Fibroblast; for IC50: read-out: IC50 Ug/ml VZV; for inhibition at 10 µg/mL: read-out: % inhibition 10 ug/ml VZV, 10 ug/ml
# Experimental: For the generation of stock VZV to be used in the assay, VZV strain Ellen (ATCC #VR-1367) is used to infect human foreskin fibroblast (HFF) cells at low multiplicity (less than 0.1) and incubated overnight at 37° C. in 5% CO2. After the overnight incubation, the mixture of uninfected and VZV-infected HFF infected cells are then harvested and added to each well of 96-well plates (3.5×10^4 cells in 100 μl DMEM supplemented with 2% FBS) which contain test compound or the reference standard drug control (in 100 μl DMEM supplemented with 2% FBS per well). These cells are incubated for three days at 37° C. in 5% CO2, then fixed for ELISA assay. The primary antibody is murine anti-VZV glycoprotein II monoclonal antibody (Applied Biosystems, Inc. #13-145-100) and the secondary antibody is goat anti-mouse IgG linked to β-galactosidase. Thus the extent of viral replication is determined by assessing β-galactosidase activity by quantifying the generation of the 4-methyl umbelliferone fluorescent cleavage product after addition of the methyl umbelliferyl-β-D-galactoside (Sigma #M1633) substrate on a microfluorimeter (365 nm for excitation and 450 nm for emission). Antiviral activity (IC50) of the test compound is determined by comparing the flourescence obtained in absence of compound to that obtained in the presence of compound.
# [3] = tested on: HCMV wild-type; test: HCMV yield assay; type: cell-based, human cytomegalovirus; conditions: human foreskin fibroblasts; for IC50: Human betaherpesvirus 5, Fibroblast, read-out: IC50 Ug/ml HCMV
# Experimental: Yield assay. Monolayer cultures of human foreskin fibroblasts are infected with HCMV wild-type, typically at a multiplicity of infection equal to 0.2, in the presence of inhibitor compound (varying concentrations). At three days post-infection, total virus produced in these cultures (i.e. virus yield) is assessed by harvesting and titering the virus in 12-well plates of cultured human foreskin fibroblasts (done in the absence of inhibitor). Plaques are quantified at 2 weeks post-infection. An inhibitor of HCMV is identified by the reduction in titer of virus yield in the presence, compared to the titer in the absence of compound. In this assay, the relative anti-HCMV activity of an inhibitor is typically determined by calculating the IC50 or IC90 value, that is, the amount of compound required to reduce the virus yield by 50% or 90%, respectively. Table I describes IC50 data for compounds tested against HCMV.
IC50 [1],IC50 Ug/ml HSV [1],SMILES,IC50 [2],inhibition at 10 µg/mL [2],IC50 [3],% inhibition 10 ug/ml VZV [2],IC50 Ug/ml VZV [2],IC50 Ug/ml HCMV [3]
7 µg/mL,,"COc1cc(NCc2ccccc2)c(NC(=S)Nc2ccc(NC(C)=O)cc2)cc1Cl [Example 271, N-{4-[3-(2-Benzylamino-5-chloro-4-methoxy-phenyl)-thioureido]-phenyl}-acetamide]",3.5 µg/mL,105%,> 10 µg/mL,,,
> 50 µg/mL,,"CC(=O)Nc1ccc(NC(=S)Nc2ccc(OCCN(C)C)c(Cl)c2)cc1 [Example 343, N-(4-{3-[3-Chloro-4-(2-dimethylamino-ethoxy)-phenyl]-thioureido}-phenyl)-acetamide]",> 10 µg/mL,38%,40 µg/mL,,,
10 µg/mL,,"CC(=O)Nc1ccc(NC(=S)Nc2cc(Cl)ccc2Cl)cc1 [Example 930, N-{4-[3-(2,5-Dichloro-phenyl)-thioureido]-phenyl}-acetamide]",> 10 µg/mL,42%,> 10 µg/mL,,,
,>50 Ug/ml,CC(=O)Nc1ccc(NC(=S)Nc2ccc(N(C)CCN(C)C)c(Cl)c2)cc1 [Example 300],,,,23%,>10 Ug/ml,1.5 Ug/ml
5 µg/mL,,"CC(=O)Nc1ccc(NC(=S)Nc2ccc(Cl)c(C(F)(F)F)c2)cc1 [Example 112, N-{4-[3-(4-Chloro-3-trifluoromethyl-phenyl)-thioureido]-phenyl}-acetamide]",> 10 µg/mL,55%,3 µg/mL,,,
,>50 Ug/ml,CC(=O)Nc1ccc(NC(=S)Nc2ccc(N(C)CCO)c(Cl)c2)cc1 [Example 291],,,,18%,>10 Ug/ml,6 Ug/ml
40 µg/mL,,"COc1ccc(Cl)c(NC(=S)Nc2ccc(NC(C)=O)cc2)c1 [Example 881, N-{4-[3-(2-Chloro-5-methoxy-phenyl)-thioureido]-phenyl}-acetamide]",> 10 µg/mL,12%,> 50 µg/mL,,,
> 10 µg/mL,,"CC(=O)Nc1ccc(NC(=S)Nc2cc(Cl)c(-n3cccc3)cc2Oc2ccc(Cl)cc2)cc1 [Example 900, N-(4-{3-[5-Chloro-2-(4-chloro-phenoxy)-4-pyrrol-1-yl-phenyl]-thioureido}-phenyl)-acetamide]",2.5 µg/mL,124%,2 µg/mL,,,
9 µg/mL,,"CCOc1cc(OC)c(NC(=S)Nc2ccc(NC(C)=O)cc2)cc1Cl [Example 832, N-{4-[3-(5-Chloro-4-ethoxy-2-methoxy-phenyl)-thioureido]-phenyl}-acetamide]",> 10 µg/mL,15%,> 50 µg/mL,,,
> 50 µg/mL,,"COc1cc(OCCO)c(Cl)cc1NC(=S)Nc1ccc(NC(C)=O)cc1 [Example 215, N-(4-{3-[5-Chloro-4-(2-hydroxy-ethoxy)-2-methoxy-phenyl]-thioureido}-phenyl)-acetamide]",> 10 µg/mL,30%,> 10 µg/mL,,,
1.2 µg/mL,,"COc1cc(C)c(Cl)cc1NC(=S)Nc1ccc(NC(C)=O)cc1 [Example 199, N-{4-[3-(5-Chloro-2-methoxy-4-methyl-phenyl)-thioureido]-phenyl}-acetamide]",> 15 µg/mL,60%,> 10 µg/mL,,,
> 50 µg/mL,,"CCOc1c(Cl)cc(NC(=S)Nc2ccc(NC(C)=O)cc2)cc1Cl [Example 176, N-{4-[3-(3,5-Dichloro-4-ethoxy-phenyl)-thioureido]-phenyl}-acetamide]",> 10 µg/mL,24%,0.5 µg/mL,,,
